Publication PMC10648852, “Molecular drivers of resistance to sulbactam-durlobactam in contemporary clinical isolates of Acinetobacter baumannii” (Antimicrobial Agents and Chemotherapy, 2023)
Several values for one entry are separate records, joined by “and”; a condition that tells them apart may be missing. Identical values can stand only once. Like-named read-outs stand apart in the source and are kept apart here.

What was measured:
[1] = test system: A. baumannii wild-type PBP3; assay: Acylation rate constant (kinact/Ki), fluorescence anisotropy competition with BOCILLIN; settings: Wildtype PBP3
[2] = test system: A. baumannii PBP3 H370Y; assay: as above
[3] = test system: A. baumannii PBP3 N377Y; assay: as above
[4] = test system: ABC clinical isolates with SUL-DUR MIC > 4 µg/mL; assay: microbe, parasite or virus in culture; type: cell-based, Acinetobacter baumannii-calcoaceticus complex
How it was run: (§1)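 SUL-DUR combines serially twofold-diluted sulbactam with durlobactam held at 4 µg/mL; MICs obtained by CLSI-standard broth microdilution and read against CLSI breakpoints when these exist.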

[5] = test system: A. baumannii PBP3 Q488K; assay: Acylation rate constant (kinact/Ki), fluorescence anisotropy competition with BOCILLIN
[6] = test system: A. nosocomialis clinical isolate; assay: microbe, parasite or virus in culture; type: cell-based; settings: Acinetobacter nosocomialis, isolate ARC7023 (IHMA 2118812), France, BSI, 2019, read-out: MIC
How it was run: as §1

[7] = test system: A. baumannii clinical isolates; assay: microbe, parasite or virus in culture; type: cell-based; settings: Acinetobacter baumannii
How it was run: as §1

CC1(C)[C@H](C(=O)O)N2C(=O)C[C@H]2S1(=O)=O [sulbactam]
> 64 µg/mL: MIC50 ([4]; Acinetobacter) | MIC90 ([4]; Acinetobacter) | MIC ([4]; Acinetobacter, read-out: MIC Max) | MIC ([7]; isolate ARC6645 (IHMA 1435703), France, UTI, 2016, read-out: MIC) | MIC ([7]; isolate ARC6646 (IHMA 1484127), United States, RTI, 2016, read-out: MIC) | MIC ([7]; isolate ARC6647 (IHMA 1386786), Argentina, RTI, 2016, read-out: MIC) | MIC ([7]; isolate ARC6652 (IHMA 1465642), Belgium, RTI, 2016, read-out: MIC) | MIC ([7]; isolate ARC6653 (IHMA 1308777), Vietnam, RTI, 2016, read-out: MIC) | MIC ([7]; isolate ARC6799 (IHMA 1562935), Spain, UTI, 2017, read-out: MIC) | MIC ([7]; isolate ARC6802 (IHMA 1557073), Spain, UTI, 2017, read-out: MIC) | MIC ([7]; isolate ARC6803 (IHMA 1589408), Belgium, UTI, 2017, read-out: MIC) | MIC ([7]; isolate ARC6809 (IHMA 1699528), Guatemala, RTI, 2017, read-out: MIC) | MIC ([7]; isolate ARC6810 (IHMA 1699548), Guatemala, RTI, 2017, read-out: MIC) | MIC ([7]; isolate ARC6812 (IHMA 1699530), Guatemala, RTI, 2017, read-out: MIC) | MIC ([7]; isolate ARC6813 (IHMA 1699543), Guatemala, UTI, 2017, read-out: MIC) | MIC ([7]; isolate ARC6814 (IHMA 1699512), Guatemala, RTI, 2017, read-out: MIC) | MIC ([7]; isolate ARC6815 (IHMA 1699513), Guatemala, RTI, 2017, read-out: MIC) | MIC ([7]; isolate ARC6816 (IHMA 1699521), Guatemala, RTI, 2017, read-out: MIC) | MIC ([7]; isolate ARC6817 (IHMA 1699523), Guatemala, RTI, 2017, read-out: MIC) | MIC ([7]; isolate ARC6819 (IHMA 1683267), Thailand, RTI, 2017, read-out: MIC) | MIC ([7]; isolate ARC6820 (IHMA 1647876), Argentina, RTI, 2017, read-out: MIC) | MIC ([7]; isolate ARC6821 (IHMA 1699517), Guatemala, RTI, 2017, read-out: MIC) | MIC ([7]; isolate ARC6822 (IHMA 1637626), Guatemala, RTI, 2017, read-out: MIC) | MIC ([7]; isolate ARC6937 (IHMA 1562926), Spain, UTI, 2017, read-out: MIC)
126.7%: % WT ([2]; listed as Sulbactam)
19 ± 2 ([2]) M^-1s^-1: k inact/K i ([2]; average ± SD)
66%: % WT ([5]; listed as Sulbactam)
11 ± 2 ([2]) M^-1s^-1: k inact/K i ([3]; average ± SD)
16 µg/mL: MIC ([7]; isolate ARC6808 (IHMA 1557168), Spain, RTI, 2017, read-out: MIC)
100%: % WT [1] | %NS (% non-susceptibility) ([4]; 64 non-clonal ABC isolates, 2023 CLSI breakpoints plus FDA breakpoint of 4 µg/mL for SUL-DUR)
73.3%: % WT ([3]; listed as Sulbactam)
~ 120% and 126%: % WT [2]
15 ± 3 ([10]) M^-1s^-1: k inact/K i ([1]; average ± SD)
32 µg/mL: MIC [6] | MIC ([7]; isolate ARC6823 (IHMA 1620872), Greece, SSSI, 2017, read-out: MIC)
64 µg/mL: MIC ([7]; isolate ARC6644 (IHMA 1420327), Mexico, UTI, 2016, read-out: MIC) | MIC ([7]; isolate ARC6648 (IHMA 1407634), Spain, RTI, 2016, read-out: MIC) | MIC ([7]; isolate ARC6650 (IHMA 1457337), Argentina, RTI, 2016, read-out: MIC) | MIC ([7]; isolate ARC6800 (IHMA 1557526), Turkey, RTI, 2017, read-out: MIC) | MIC ([7]; isolate ARC6801 (IHMA 1662094), Thailand, RTI, 2017, read-out: MIC) | MIC ([7]; isolate ARC6805 (IHMA 1558650), United States, RTI, 2017, read-out: MIC) | MIC ([7]; isolate ARC6818 (IHMA 1683261), Thailand, RTI, 2017, read-out: MIC) | MIC ([7]; isolate ARC6824 (IHMA 1625487), Argentina, BSI, 2017, read-out: MIC) | MIC ([7]; isolate ARC6950 (IHMA 1820064), Israel, RTI, 2018, read-out: MIC)
9.9 ± 0.3 ([2]) M^-1s^-1: k inact/K i ([5]; average ± SD)
8 µg/mL: MIC ([4]; Acinetobacter, read-out: MIC Min)
60%–73%: % WT [3] | % WT [5]
